Values joined by “and” are separate entries in the source; they are usually repeats but may differ in a detail not shown here. Equal values may be shown once. Read-outs that look alike come from different tables or passages of the source.
Legend:
GT-1b Huh-lunet cells = test: Biological Example 4: antiviral combination studies with Compound 5 (MacSynergy II); type: cell-based, HCV; settings: in combination with Compound 5, 1b replicon cells
[1] = tested on: Genotype 1b replicon cells; test: Biological Example 6: compound concentration required to suppress replicon RNA by 1-1.5 log over 6 days (QRT-PCR); type: cell-based, HCV; settings: 6 day assay
Experimental: Flasks were incubated at 37° C., media and compounds were refreshed every two days. After 6 days of incubation the replicon cells were collected for RNA extraction and replicon RNA QRT-PCR analysis.

HCV genotype 1a replicon [2] = test: Biological Example 3: antiviral combination studies with Compound 4 (MacSynergy II); settings: in combination with Compound 4
[3] = tested on: GT1b and GT1a mutant replicons; test: Biological Example 8: summary of cross resistance of mutant replicons; type: cell-based, HCV
Experimental: (§1) GT1b and GT1a replicons carrying Renilla Luciferase reporter were used to generate the mutant replicons. The mutations were introduced into the replicon construct by site-directed mutagenesis and confirmed by sequencing. Mutant replicon RNAs were generated from DNA by in vitro transcription and transfected into Huh-7 Lunet or C1 cells
(§2) Compounds were serially diluted 1:3 in 100% DMSO (Sigma). These serial dilutions were added to the cells at a 1:200 dilution to achieve a final concentration of 0.5% DMSO in a total volume of 200 μL. […] EC50 values were calculated using Prism.
(§3) For comparison, a fold change of 0-3 is considered “sensitive”, a fold change of 3-10 is considered “low”, a fold change of 10-50 is considered “medium” and a fold change of greater than […] is considered “high”.

[4] = tested on: Huh-7 cells carrying a HCV genotype 1a replicon; test: Biological Example 3: cytotoxicity in combination studies (MacSynergy II)
HCV 1b replicon system = test: Biological Example 5: antiviral combination studies with Compound 6 (MacSynergy II); type: cell-based; settings: in combination with Compound 6
HCV genotype 1a replicon [5] = test: Biological Example 3: HCV genotype 1a replicon assay, EC50; type: cell-based; settings: Hepatitis C virus, 72 h, 3 days, read-out: EC50
Experimental: The HCV genotype 1a replicon cell line used in this study was described previously. The cells were grown in cell culture medium containing Dulbecco's Modified Eagle Medium (DMEM) with GlutaMAX (Gibco, Carlsbad, Calif., Cat#10569-044), supplemented with 10% FBS (HyClone, Logan, Utah, Cat#SH30071.03), 100 Units/mL Penicillin, 100 μg/mL Streptomycin (Gibco, Carlsbad, Calif., Cat#15140-122), and 0.1 mM non-essential amino acids (Gibco, Carlsbad, Calif., Cat#11140-050). Replicon cells were maintained in 0.5 mg/mL Geneticin (Invitrogen, Carlsbad, Calif., Cat#10131-035) to prevent the loss of HCV replicon. The cells were passaged every 3-4 days before reaching confluency.
(§4) [formula] where XC is the fluorescence signal from the compound-treated well; MB is the average fluorescence signal from puromycin-treated wells; MD is the average fluorescence signal from DMSO-treated wells. The anti-HCV replication activity was determined by the luminescence signal generated from the reporter renilla luciferase of the HCV replicon. The percent inhibition on HCV replicon was calculated using equation 1, where XC is the luminescence signal from compound-treated well; MB is average luminescence signal from the ITMN-191-treated wells; MD is the average luminescence signal from DMSO-treated wells.
(§5) Both CC50 and EC50 values were obtained using Pipeline Pilot 5.0 software package (Accelrys, San Diego, Calif.) by nonlinear regression fitting of experimental data to equation 2: […]

[6] = Drug-drug interaction: exposure on co-administration with Compound 2
[7] = Biological Example 3: cytotoxicity (calcein AM), CC50; type: cell-based; settings: human, Huh-7 cells carrying a HCV genotype 1a replicon; HCV genotype 1a replicon cells; calcein AM
Experimental: The HCV replicon assay was a multiplex assay which can assess both cytotoxicity and anti-replicon activity from the same well. The CC50 assay was performed first.
The cytotoxicity effect was determined by calcein AM conversion to fluorescent product. The percent cytotoxicity was calculated by equation 1:
as §4, §5

[8] = tested on: NS3 GT1b mutant replicons; type: cell-based, HCV
Experimental: as §1, §2, §3

[9] = tested on: NS3 GT1a mutant replicons; type: cell-based, HCV
Experimental: as §1, §2, §3

[10] = human; 800 mg/day; cited from earlier work
[11] = all single NS3 PI-resistant mutants
[12] = triple class mutants that confer resistance to PI, NS5A and Compound 1

## Fc1ccccc1-c1nc2ccn(Cc3ccc(-c4ccc(C(F)(F)F)cc4C(F)(F)F)nn3)cc-2n1 [Compound 1, 5-((6-(2,4-bis(trifluoromethyl)phenyl)pyridazin-3-yl)methyl)-2-(2-fluorophenyl)-5H-imidazo[4,5-c]pyridine]
GT-1b Huh-lunet cells
  Antagonism Volume: 0 ± 0 nM^2
  Synergy Volume: 70 ± 26 nM^2
[1]
  Compound concentration able to induce replicon RNA 1-1.5 log drop: 10 nM
HCV genotype 1a replicon [2]
  Antagonism Volume: −1 ± 2 nM^2%
  Synergy Volume: 34 ± 26 nM^2%
[3]; [11]
  susceptibility of mutants: full susceptibility
[4]; in combination with Compound 4
  Antagonism Volume (cytotoxicity): 0 ± 1 nM^2%
  Interaction (cytotoxicity): Additivity (Additivity: ≦25 and >−25 nM^2%)
  Synergy Volume (cytotoxicity): 13 ± 11 nM^2%
HCV 1b replicon system
  Antagonism Volume: −17 ± 0.7 nM^2
  Interaction: Minor Synergy
  Synergy Volume: 34 nM^2 and 34 ± 9.9 nM^2
HCV genotype 1a replicon [5]
  EC50: 0.019 ± 0.008 µM
[6]
  increase of exposure when combined with Compound 2: 2-3 ×
[7]
  CC50 at 3 days: > 44.4 µM

## CC(C)OC(=O)[C@H](C)N[P@](=O)(OC[C@H]1O[C@@](C#N)(c2ccc3c(N)ncnn23)[C@](C)(O)[C@@H]1OC(=O)C(C)C)Oc1ccccc1 [Compound 4]
[1]
  Compound concentration able to induce replicon RNA 1-1.5 log drop: 1000 nM
[8]; mutant A156D
  fold change in EC50 vs wild-type GT1b: 0.4 fold
[8]; mutant A156G
  fold change in EC50 vs wild-type GT1b: 0.6 fold
[8]; mutant A156T
  fold change in EC50 vs wild-type GT1b: 0.9 fold
[8]; mutant A156V
  fold change in EC50 vs wild-type GT1b: 0.6 fold
[8]; mutant D168A
  fold change in EC50 vs wild-type GT1b: 1.0 fold
[8]; mutant D168E
  fold change in EC50 vs wild-type GT1b: 1.0 fold
[8]; mutant D168E + L31V + Y448H
  fold change in EC50 vs wild-type GT1b: 1.1 fold
[8]; mutant D168E + Y93H + Y448H
  fold change in EC50 vs wild-type GT1b: 0.9 fold
[8]; mutant D168E + Y448H
  fold change in EC50 vs wild-type GT1b: 0.7 fold
[8]; mutant D168G
  fold change in EC50 vs wild-type GT1b: 0.7 fold
[8]; mutant D168H
  fold change in EC50 vs wild-type GT1b: 1.7 fold
[8]; mutant D168H + C445F
  fold change in EC50 vs wild-type GT1b: 0.5 fold
[8]; mutant D168L + C445F
  fold change in EC50 vs wild-type GT1b: 0.3 fold
[8]; mutant D168N
  fold change in EC50 vs wild-type GT1b: 1.2 fold
[8]; mutant D168T
  fold change in EC50 vs wild-type GT1b: 1.4 fold
[8]; mutant D168V
  fold change in EC50 vs wild-type GT1b: 0.9 fold
[8]; mutant D168V + C445F
  fold change in EC50 vs wild-type GT1b: 0.7 fold
[8]; mutant D168V + L31V + Y448H
  fold change in EC50 vs wild-type GT1b: 0.6 fold
[8]; mutant D168V + Y93H + Y448H
  fold change in EC50 vs wild-type GT1b: 0.8 fold
[8]; mutant D168V + Y448H
  fold change in EC50 vs wild-type GT1b: 0.9 fold
[8]; mutant D168Y
  fold change in EC50 vs wild-type GT1b: 0.5 fold
[8]; mutant L31V + D168E
  fold change in EC50 vs wild-type GT1b: 1.6 fold
[8]; mutant L31V + D168V
  fold change in EC50 vs wild-type GT1b: 1.1 fold
[8]; mutant R155C
  fold change in EC50 vs wild-type GT1b: 0.8 fold
[8]; mutant R155G
  fold change in EC50 vs wild-type GT1b: 0.2 fold
[8]; mutant R155K
  fold change in EC50 vs wild-type GT1b: 0.6 fold
[8]; mutant R155L
  fold change in EC50 vs wild-type GT1b: 0.7 fold
[8]; mutant R155Q
  fold change in EC50 vs wild-type GT1b: 0.8 fold
[8]; mutant R155W
  fold change in EC50 vs wild-type GT1b: 0.5 fold
[8]; mutant Y93H + D168E
  fold change in EC50 vs wild-type GT1b: 1.3 fold
[8]; mutant Y93H + D168V
  fold change in EC50 vs wild-type GT1b: 1.0 fold
[9]; mutant A156T
  fold change in EC50 vs wild-type GT1a: 0.2 fold
[9]; mutant D168A
  fold change in EC50 vs wild-type GT1a: 0.9 fold
[9]; mutant D168E
  fold change in EC50 vs wild-type GT1a: 1.5 fold
[9]; mutant D168G
  fold change in EC50 vs wild-type GT1a: 0.8 fold
[9]; mutant D168H
  fold change in EC50 vs wild-type GT1a: 1.0 fold
[9]; mutant D168N
  fold change in EC50 vs wild-type GT1a: 1.0 fold
[9]; mutant D168V
  fold change in EC50 vs wild-type GT1a: 1.4 fold
[9]; mutant D168Y
  fold change in EC50 vs wild-type GT1a: 1.0 fold
[9]; mutant R155I
  fold change in EC50 vs wild-type GT1a: 0.6 fold
[9]; mutant R155K
  fold change in EC50 vs wild-type GT1a: 0.7 fold
[9]; mutant R155K + L31M
  fold change in EC50 vs wild-type GT1a: 0.4 fold
[9]; mutant R155K + L31M + Y448H
  fold change in EC50 vs wild-type GT1a: 0.6 fold
[9]; mutant R155K + M28T
  fold change in EC50 vs wild-type GT1a: 0.2 fold
[9]; mutant R155K + M28T + Y448H
  fold change in EC50 vs wild-type GT1a: 0.3 fold
[9]; mutant R155K + Q30H + Y448H
  fold change in EC50 vs wild-type GT1a: 0.9 fold
[9]; mutant R155K + Q30R
  fold change in EC50 vs wild-type GT1a: 0.9 fold
[9]; mutant R155K + Y93H
  fold change in EC50 vs wild-type GT1a: 0.3 fold
[9]; mutant R155K + Y488H (first line, r20)
  fold change in EC50 vs wild-type GT1a: 0.7 fold
[9]; mutant R155K + Y488H (second line, r26)
  fold change in EC50 vs wild-type GT1a: 0.5 fold
[9]; mutant R155M
  fold change in EC50 vs wild-type GT1a: 0.4 fold
[9]; mutant R155S
  fold change in EC50 vs wild-type GT1a: 0.2 fold
[9]; mutant R155T
  fold change in EC50 vs wild-type GT1a: 0.2 fold
[9]; mutant R155W
  fold change in EC50 vs wild-type GT1a: 0.7 fold
[9]; mutant R155k + Q30H
  fold change in EC50 vs wild-type GT1a: 0.6 fold
[3]; [11]
  susceptibility of mutants: full susceptibility
[3]; [12]
  susceptibility of mutants: susceptible
[4]; in combination with Ribavirin
  Antagonism Volume (cytotoxicity): −1 ± 2 μM^2%
  Interaction (cytotoxicity): Additivity (Additivity: ≦25 and >−25 nM^2%)
  Synergy Volume (cytotoxicity): 4 ± 3 μM^2%
[7]
  CC50 at 3 days: > 44.4 µM

## NC(=O)c1ncn([C@@H]2O[C@H](CO)[C@@H](O)[C@H]2O)n1 [Ribavirin, 1-β-D-ribofuranosyl-1H-1,2,4-Triazole-3-carboxamide, reference compound]
GT-1b Huh-lunet cells
  Antagonism Volume: −12 ± 9 nM^2
  Interaction: Additive
  Synergy Volume: 12 ± 8 nM^2
[10]
  steady-state plasma concentration: 6 to 11 µM
HCV genotype 1a replicon [2]
  Antagonism Volume: −43 nM^2% and −43 ± 20 nM^2%
  Synergy Volume: 1 ± 1 nM^2%
[3]; [11]
  susceptibility of mutants: full susceptibility
[3]; [12]
  susceptibility of mutants: susceptible
HCV 1b replicon system
  Antagonism Volume: −0.5 ± 0.1 nM^2
  Interaction: Moderate Synergy
  Synergy Volume: 61 nM^2 and 61 ± 0.5 nM^2
HCV genotype 1a replicon [5]
  EC50: 36.5 ± 17.5 µM
[7]
  CC50 at 3 days: > 88.8 µM

Reference: patent US9452154B2, “Methods for treating HCV” (Gilead Sciences, Inc., priority 2010, dated 2016)
